Measured values: paper PMC9848300, “Discovery of novel enasidenib analogues targeting inhibition of mutant isocitrate dehydrogenase 2 as antileukaemic agents” (Journal of Enzyme Inhibition and Medicinal Chemistry, 2023)
Like-named read-outs stand apart in the source and are kept apart here.

Experiments:
Format in all cases: cell-based
MOLT-4 = test: NCI 60 antitumor screening (single dose / five doses); settings: Homo sapiens
T-47D = test: as above; settings: Homo sapiens, T47D, read-out: Growth inhibition percentage (GI %)
DU-145 = test: as above; settings: Homo sapiens
SK-MEL-5 = test: as above; settings: Homo sapiens
SN 12C = test: as above; settings: Homo sapiens, SN12C, read-out: Growth inhibition percentage (GI %)
HL-60(TB) = test: as above; settings: Homo sapiens
OVCAR-5 = test: NCI 60 antitumor screening (single dose); settings: Homo sapiens; OVCAR-5 (ovarian cancer), single dose 10 μM; read-out: Growth inhibition percentage (GI %)
Method in brief: (§1)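 GI% derived as 100 − G% from triplicate growth measurements in the NCI 60 human tumour panel, compound 10 μM, single dose, per NCI protocol.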

A549/ATCC = test: NCI 60 antitumor screening (single dose); settings: Homo sapiens; A549/ATCC (non-small cell lung cancer), single dose 10 μM; read-out: Growth inhibition percentage (GI %)
Method in brief: (§2)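 Test compound added at 10 μM to each of 60 human cancer lines from nine tumour types; growth measured per NCI protocol in triplicate; percent growth converted to inhibition (100 − G%).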

M14 = test: NCI 60 antitumor screening (single dose); settings: Homo sapiens; M14 (melanoma), single dose 10 μM; read-out: Growth inhibition percentage (GI %)
Method in brief: as §2

KM 12 = test: NCI 60 antitumor screening (single dose); settings: Homo sapiens, KM12; KM 12 (colon cancer), single dose 10 μM; read-out: Growth inhibition percentage (GI %)
Method in brief: as §2

NCI-H322M = test: NCI 60 antitumor screening (single dose); settings: Homo sapiens; NCI-H322M (non-small cell lung cancer), single dose 10 μM; read-out: Growth inhibition percentage (GI %)
Method in brief: as §2

NCI-H522 = test: NCI 60 antitumor screening (single dose); settings: Homo sapiens; NCI-H522 (non-small cell lung cancer), single dose 10 μM; read-out: Growth inhibition percentage (GI %)
Method in brief: as §1

NCI-H23 = test: NCI 60 antitumor screening (single dose); settings: Homo sapiens; NCI-H23 (non-small cell lung cancer), single dose 10 μM; read-out: Growth inhibition percentage (GI %)
Method in brief: as §1

NCI-H460 = test: NCI 60 antitumor screening (single dose); settings: Homo sapiens; NCI-H460 (non-small cell lung cancer), single dose 10 μM; read-out: Growth inhibition percentage (GI %)
Method in brief: as §1

CAKI-1 = test: NCI 60 antitumor screening (single dose); settings: Homo sapiens; CAKI-1 (renal cancer), single dose 10 μM; read-out: Growth inhibition percentage (GI %)
Method in brief: as §2

HS 578T = test: NCI 60 antitumor screening (single dose); settings: Homo sapiens; HS 578T (breast cancer), single dose 10 μM; read-out: Growth inhibition percentage (GI %)
Method in brief: as §2

NCI-H226 = test: NCI 60 antitumor screening (single dose); settings: Homo sapiens; NCI-H226 (non-small cell lung cancer), single dose 10 μM; read-out: Growth inhibition percentage (GI %)
Method in brief: as §2

PC-3 = test: NCI 60 antitumor screening (single dose); settings: Homo sapiens; PC-3 (prostate cancer), single dose 10 μM; read-out: Growth inhibition percentage (GI %)
Method in brief: as §2

SF-268 = test: NCI 60 antitumor screening (single dose); settings: Homo sapiens; SF-268 (CNS cancer), single dose 10 μM; read-out: Growth inhibition percentage (GI %)
Method in brief: as §1

MCF7 = test: NCI 60 antitumor screening (single dose); settings: Homo sapiens; MCF7 (breast cancer), single dose 10 μM; read-out: Growth inhibition percentage (GI %)
Method in brief: as §2

U251 = test: NCI 60 antitumor screening (single dose); settings: Homo sapiens, U-251; U251 (CNS cancer), single dose 10 μM; read-out: Growth inhibition percentage (GI %)
Method in brief: as §1

SK-OV-3 = test: NCI 60 antitumor screening (single dose); settings: Homo sapiens; SK-OV-3 (ovarian cancer), single dose 10 μM; read-out: Growth inhibition percentage (GI %)
Method in brief: as §1

HOP-62 = test: NCI 60 antitumor screening (single dose); settings: Homo sapiens; HOP-62 (non-small cell lung cancer), single dose 10 μM; read-out: Growth inhibition percentage (GI %)
Method in brief: as §1

OVCAR-8 = test: NCI 60 antitumor screening (single dose); settings: Homo sapiens; OVCAR-8 (ovarian cancer), single dose 10 μM; read-out: Growth inhibition percentage (GI %)
Method in brief: as §2

OVCAR-4 = test: NCI 60 antitumor screening (single dose); settings: Homo sapiens; OVCAR-4 (ovarian cancer), single dose 10 μM; read-out: Growth inhibition percentage (GI %)
Method in brief: as §2

OVCAR-3 = test: NCI 60 antitumor screening (single dose); settings: Homo sapiens; OVCAR-3 (ovarian cancer), single dose 10 μM; read-out: Growth inhibition percentage (GI %)
Method in brief: as §2

SK-MEL-28 = test: NCI 60 antitumor screening (single dose / five doses); settings: Homo sapiens
[1] = MOLT-4 (leukaemia), single dose 10 μM, read-out: Growth inhibition percentage (GI %)
[2] = T-47D (breast cancer), single dose 10 μM
[3] = DU-145 (prostate cancer), single dose 10 μM, read-out: Growth inhibition percentage (GI %)
[4] = SK-MEL-5 (melanoma), single dose 10 μM, read-out: Growth inhibition percentage (GI %)
[5] = SN 12C (renal cancer), single dose 10 μM
[6] = HL-60(TB) (leukaemia), single dose 10 μM, read-out: Growth inhibition percentage (GI %)
[7] = SK-MEL-28 (melanoma), single dose 10 μM, read-out: Growth inhibition percentage (GI %)

Row | SMILES | inhibition at 10 µM (OVCAR-5) [%] | inhibition at 10 µM (A549/ATCC) [%] | inhibition at 10 µM (M14) [%] | inhibition at 10 µM (KM 12) [%] | inhibition at 10 µM (NCI-H322M) [%] | inhibition at 10 µM (NCI-H522) [%] | inhibition at 10 µM (NCI-H23) [%] | inhibition at 10 µM (NCI-H460) [%] | inhibition at 10 µM (CAKI-1) [%] | inhibition at 10 µM (HS 578T) [%] | inhibition at 10 µM (NCI-H226) [%] | inhibition at 10 µM (PC-3) [%] | inhibition at 10 µM (SF-268) [%] | inhibition at 10 µM (MCF7) [%] | inhibition at 10 µM (U251) [%] | inhibition at 10 µM (SK-OV-3) [%] | inhibition at 10 µM (HOP-62) [%] | inhibition at 10 µM (OVCAR-8) [%] | inhibition at 10 µM (OVCAR-4) [%] | inhibition at 10 µM (OVCAR-3) [%] | also measured
1 | O=[N+]([O-])c1cc(/C=N/Nc2nc(N/N=C/c3ccc(Cl)c([N+](=O)[O-])c3)nc(N3CCCCC3)n2)ccc1Cl [compound 7i, 2,4-Bis[(E)-2-[(4-Chloro-3-nitrophenyl)methylidene]hydrazin-1-yl]-6-(piperidin-1-yl)-1,3,5-triazine] | -8.09 | -11.2 | 7.7 | 94.5 | 28.8 | 48.1 | 18.2 | 1.33 | 27.6 | 46.2 | 38.6 | 46.6 | 35.1 | 99.1 | 81.5 | 1.24 | 56.3 | 69 | 13.1 | 107 | inhibition at 10 µM (MOLT-4; MOLT-4, read-out: Growth inhibition percentage (GI %)): 57.7%; inhibition at 10 µM (T-47D): 51.8%; inhibition at 10 µM (DU-145; DU-145, read-out: Growth inhibition percentage (GI %)): 70.4%; inhibition at 10 µM (SK-MEL-5; SK-MEL-5, read-out: Growth inhibition percentage (GI %)): 48.9%; inhibition at 10 µM (SN 12C): 27.7%; inhibition at 10 µM (HL-60(TB); HL-60, read-out: Growth inhibition percentage (GI %)): 58.1%; inhibition at 10 µM (SK-MEL-28; SK-MEL-28, read-out: Growth inhibition percentage (GI %)): 22.2%
2 | Oc1ccccc1/C=N/Nc1nc(N/N=C/c2ccccc2O)nc(N2CCCCC2)n1 [compound 7a, 2-[(1e)-(2-{4-[(E)-2-[(2-Hydroxyphenyl)methylidene]hydrazin-1-yl]-6-(piperidin-1-yl)-1,3,5-triazin-2-yl}hydrazin-1-ylidene)methyl] phenol] | 28.4 | 52.2 | 53.6 | 52.5 | 41.1 | 52.5 | 44.2 | 60.5 | 24.5 | 23.4 | 18.2 | 55.2 | 45.7 | 64.3 | 49.6 | 12 | 44.2 | 50.4 | 70.9 | 80.8 | inhibition at 10 µM (MOLT-4; [1]): 59.1%; inhibition at 10 µM (T-47D; [2]): 51.8%; inhibition at 10 µM (DU-145; [3]): 45.2%; inhibition at 10 µM (SK-MEL-5; [4]): 25.6%; inhibition at 10 µM (SN 12C; [5]): 40.5%; inhibition at 10 µM (HL-60(TB); [6]): 52.6%; inhibition at 10 µM (SK-MEL-28; [7]): 36.6%
3 | Oc1ccc(/C=N/Nc2nc(N/N=C/c3ccc(O)c(O)c3)nc(N3CCOCC3)n2)cc1O [compound 6j, 4-[(1e)-(2-{4-[(E)-2-[(3,4-Dihydroxyphenyl)methylidene]hydrazin-1-yl]-6-(morpholin-4-yl)-1,3,5-triazin-2-yl}hydrazin-1-ylidene)methyl]benzene-1,2-diol] | -3.8 | 1.02 | -4.69 | -1.91 | 9.4 | 3.1 | 0.57 | -7.99 | 0.69 | -5.42 | 1.59 | -5.8 | -2.53 | 5.79 | -3.1 | -7.04 | -5.33 | -0.99 | -1.23 | -4.79 | inhibition at 10 µM (MOLT-4; [1]): -1.68%; inhibition at 10 µM (T-47D; [2]): 7.67%; inhibition at 10 µM (DU-145; [3]): -5.37%; inhibition at 10 µM (SK-MEL-5; [4]): 2.65%; inhibition at 10 µM (SN 12C; [5]): 0.16%; inhibition at 10 µM (HL-60(TB); [6]): 0.38%; inhibition at 10 µM (SK-MEL-28; [7]): -2.58%
